In patent US20070037841A1, “Inhibitors” (priority 2003, published 2007):
pIC50: −log10 of the molar value.

Experiments:
[1] = tested on: RRE; experiment: UV absorption spectrum screening of drugs mixed with RRE; assay type: binding, HIV-1; details: range of 300 nm to 400 nm; absorption of free compound subtracted or compared
Protocol: Referring to UV absorption spectra of RRE in the presence and absence of naphthyridine dimer, screenings of the drugs was carried out. […] In FIG. 7, the solid line indicates the UV absorption spectrum of RRE alone, and the dotted line indicates a UV absorption spectrum when the absorption of naphthyridine dimer free is subtracted from the absorption of the mixture of naphthyridine dimer and RRE. […] In FIG. 8, the solid line indicates the UV absorption spectrum of RRE alone, and the dotted line indicates a UV absorption spectrum when the absorption of the naphthyridine-azaquinolone hybrid free is subtracted from the absorption of the mixture of the naphthyridine-azaquinolone hybrid and RRE. […] In FIG. 9, the solid line indicates the UV absorption spectrum of RRE alone, and the dotted line indicates a UV absorption spectrum when the absorption of the first quinoline-containing compound free is subtracted from the absorption of the mixture of the first quinoline-containing compound and RRE. […] In FIG. 10, the solid line indicates the UV absorption spectrum of RRE alone, and the dotted line indicates a UV absorption spectrum when the absorption of the second quinoline-containing compound free is subtracted from the absorption of the mixture of the second quinoline-containing compound and RRE. As represented by structural formula (8), the second quinoline-containing compound is obtained by replacing one naphthyridine of naphthyridine dimer with a quinoline incapable of hydrogen-binding to a guanine. [drawing 13] In the present example, comparison was made within a range of 300 nm to 400 nm where no absorption of RRE occurs. Naphthyridine is represented by structural formula (9). Azaquinolone is represented by structural formula (10). […] FIGS. 11-13 respectively illustrate the UV absorption spectra of naphthyridine, azaquinolone, or quinolone alone and the mixture thereof with RRE.

[2] = tested on: RRE; experiment: CD spectrum change of RRE (and RRE-neg control) on binding of drugs; parameters: species or system HIV-1; details: for binding specificity from CD spectra of RRE versus RRE-neg: RRE-neg has no internal loop (GG and GA mismatch)
Protocol: A change in CD spectrum of RRE due to its binding to each of the drugs was analyzed. In FIG. 14, the solid line indicates a CD spectrum of RRE alone, the dotted line indicates a CD spectrum of a mixture of naphthyridine dimer and RRE, and the dashed line indicates a CD spectrum of a mixture of the naphthyridine-azaquinolone hybrid and RRE. Further, a change in CD spectrum of RRE-neg due to its binding to each of the drugs was analyzed. RRE-neg has no internal loop found in RRE, the internal loop including a GG mismatch and a GA mismatch.

[3] = tested on: RRE; experiment: SPR binding of RNA to naphthyridine dimer immobilized on sensor chip; parameters: species or system HIV-1; details: RRE over immobilized naphthyridine dimer
Protocol: (§1) In a manner shown in FIG. 17, a binding strength of each of RRE, RRE-neg, TAR, and single-stranded RNA (ss RNA) with respect to naphthyridine dimer immobilized on an SPR sensor chip was analyzed. Like RRE, TAR is known as an HIV-RNA target. In FIG. 18, the solid line indicates the binding strength of RRE, the dotted line the binding strength of RRE-neg, the dashed line the binding strength of TAR, and the double-dashed line the binding strength of ssRNA.

[4] = tested on: RRE-neg; experiment: as above; details: RRE-neg over immobilized naphthyridine dimer
Protocol: Further, a change in CD spectrum of RRE-neg due to its binding to each of the drugs was analyzed. RRE-neg has no internal loop found in RRE, the internal loop including a GG mismatch and a GA mismatch.
as §1

[5] = tested on: TAR; experiment: as above; parameters: species or system HIV; details: TAR RNA over immobilized naphthyridine dimer
Protocol: as §1

[6] = tested on: single-stranded RNA (ss RNA); experiment: as above; details: ssRNA over immobilized naphthyridine dimer
Protocol: as §1

[7] = tested on: RRE; experiment: UV titration of naphthyridine dimer with RRE; assay type: binding, HIV-1
Protocol: UV titration was carried out in order to study how naphthyridine dimer bound to RRE.
It was confirmed that as the concentration of RRE increased, the UV absorbance of naphthyridine dimer decreased and the UV absorbance of a complex increased above an isosbestic point.

[8] = tested on: Rev-RRE complex; experiment: Fluorescence polarization (anisotropy) inhibition of Rev-RRE complex formation; assay type: binding, HIV-1; details: for pIC50: Rev-Fl / RRE, read-out: IC50 value for inhibiting complex formation; for potency of inhibiting Rev-RRE complex formation compared with neomycine B: anisotropy decrease versus inhibitor concentration
Protocol: By using a fluorescence polarization method, it was tested whether Rev-RRE complex formation was inhibited by naphthyridine dimer and the naphthyridine-azaquinolone hybrid.
A greater molecular weight results in a greater polarization degree, i.e., a greater anisotropy.
Naphthyridine dimer, the naphthyridine-azaquinolone hybrid, and neomycine B were used as inhibitors, and anisotropies of each of the inhibitors was measured. […] The horizontal axis indicates the concentration of each of the inhibitors.
An IC50 value of the trinaphthyridine-azaquinolone hybrid used as an inhibitor was obtained by using the fluorescence polarization method. The IC50 value of the trinaphthyridine-azaquinolone hybrid was 0.2 μM. Further, in FIG. 27, the solid line indicates how a CD spectrum of RRE alone was changed, the dotted line indicates how a CD spectrum of RRE was changed when naphthyridine dimer was added to RRE, the dashed line indicates how a CD spectrum of RRE was changed when the trinaphthyridine-azaquinolone hybrid was added to RRE, and […].
Naphthyridine dimer, the naphthyridine-azaquinolone hybrid, the neomycine B, and the trinaphthyridine-azaquinolone hybrid were used as inhibitors, and anisotropies of each of the inhibitors was measured.

## NCCC(=O)Nc1ccc2ccccc2n1
[1]
  change in UV absorption spectrum on mixing with RRE: almost no changes

## Cc1ccc2ccc(NC(=O)CCNCCC(=O)Nc3ccc4ccccc4n3)nc2n1 [first quinoline-containing compound]
[1]
  change in UV absorption spectrum on mixing with RRE: no remarkable changes

## Cc1ccc2ccc(NC(=O)CCNCCC(=O)Nc3ccc4ccc(C)nc4n3)nc2n1 [naphthyridine dimer]
[1]
  change in UV absorption spectrum on mixing with RRE: significant changes
[2]
  change in CD spectrum of RRE when compound added: significant change in the whole spectrum
  binding specificity from CD spectra of RRE versus RRE-neg: specifically binds to the internal loop of RRE
[3]
  binding strength (SPR signal): strong signal
[4]
  binding strength (SPR signal): almost no responses
[5]
  binding strength (SPR signal): did not bind at all
[6]
  binding strength (SPR signal): almost no responses
[7]; RRE of various concentrations, absorption at 332 nm
  binding mode to RRE from UV titration: intercalated into a duplex of RRE
[7]; UV titration
  number of naphthyridine dimers forming the complex with RRE: two
[8]; fluorescence polarization
  pIC50: 5.92
[8]
  potency of inhibiting Rev-RRE complex formation compared with neomycine B: higher potency

## Cc1ccc2ccc(NC(=O)CCNCCC(=O)NCc3ccc4ccc(=O)[nH]c4n3)nc2n1 [naphthyridine-azaquinolone hybrid]
[1]
  change in UV absorption spectrum on mixing with RRE: significant changes
[2]
  change in CD spectrum of RRE when compound added: change at 300 nm or above
  binding specificity from CD spectra of RRE versus RRE-neg: specifically binds to the internal loop of RRE
[8]; fluorescence polarization
  pIC50: 5.70
[8]
  potency of inhibiting Rev-RRE complex formation compared with neomycine B: higher potency

## NCC1OC(OC2C(CO)OC(OC3C(O)C(N)CC(N)C3OC3OC(CN)C(O)C(O)C3N)C2O)C(N)C(O)C1O (stereo not shown) [neomycine B, reference compound]
[8]; fluorescence polarization
  pIC50: 5.40

## O=C(CCNCCC(=O)Nc1ccc2ccccc2n1)NCc1ccc2ccc(=O)[nH]c2n1 [second quinoline-containing compound]
[1]
  change in UV absorption spectrum on mixing with RRE: no remarkable changes

## Cc1ccc2ccc(NC(=O)CCN(CCCCCN(CCC(=O)Nc3ccc4ccc(C)nc4n3)CCC(=O)Nc3ccc4ccc(C)nc4n3)CCC(=O)NCc3ccc4ccc(=O)[nH]c4n3)nc2n1 [trinaphthyridine-azaquinolone hybrid]
[8]; fluorescence polarization
  pIC50: 6.70
  activity relative to neomycine B: approximately twenty
